Columns and labels:
[1] = test system: Rattus norvegicus; assay: Minimum effective dose(ip) required for inhibition of serotonin-induced bradycardic response in the Bezold-Jarisch reflex functional model; conditions: for minimal effective dose: Rattus norvegicus, ip, read-out: MED
[2] = molecular target: 5-hydroxytryptamine receptor 4 (Rattus norvegicus, UniProt Q62758); assay: Compound was evaluated for the agonistic activity towards 5-hydroxytryptamine 4 receptor using the rat tunica muscularis mucosae (TMM) esophagus strip assay; assay type: functional, tissue-based, Muscularis mucosa
Sequence of 5-hydroxytryptamine receptor 4 (Q62758 whole entry): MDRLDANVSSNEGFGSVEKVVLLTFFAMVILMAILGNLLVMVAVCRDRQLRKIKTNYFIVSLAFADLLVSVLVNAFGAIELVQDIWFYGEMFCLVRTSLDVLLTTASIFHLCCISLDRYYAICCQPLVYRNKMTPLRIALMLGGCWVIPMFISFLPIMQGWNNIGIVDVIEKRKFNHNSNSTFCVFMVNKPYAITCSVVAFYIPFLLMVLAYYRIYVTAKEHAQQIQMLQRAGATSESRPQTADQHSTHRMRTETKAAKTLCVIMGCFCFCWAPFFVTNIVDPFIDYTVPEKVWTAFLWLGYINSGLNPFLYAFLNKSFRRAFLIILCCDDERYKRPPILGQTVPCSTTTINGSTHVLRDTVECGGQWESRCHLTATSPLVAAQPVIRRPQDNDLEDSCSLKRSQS

[3] = molecular target: T1, 5-hydroxytryptamine receptor 3A (Rattus norvegicus, UniProt P35563); assay: Compound was evaluated […] for the antagonistic activity towards 5-hydroxytryptamine 3 receptor; assay type: functional
T1 sequence (P35563 whole entry): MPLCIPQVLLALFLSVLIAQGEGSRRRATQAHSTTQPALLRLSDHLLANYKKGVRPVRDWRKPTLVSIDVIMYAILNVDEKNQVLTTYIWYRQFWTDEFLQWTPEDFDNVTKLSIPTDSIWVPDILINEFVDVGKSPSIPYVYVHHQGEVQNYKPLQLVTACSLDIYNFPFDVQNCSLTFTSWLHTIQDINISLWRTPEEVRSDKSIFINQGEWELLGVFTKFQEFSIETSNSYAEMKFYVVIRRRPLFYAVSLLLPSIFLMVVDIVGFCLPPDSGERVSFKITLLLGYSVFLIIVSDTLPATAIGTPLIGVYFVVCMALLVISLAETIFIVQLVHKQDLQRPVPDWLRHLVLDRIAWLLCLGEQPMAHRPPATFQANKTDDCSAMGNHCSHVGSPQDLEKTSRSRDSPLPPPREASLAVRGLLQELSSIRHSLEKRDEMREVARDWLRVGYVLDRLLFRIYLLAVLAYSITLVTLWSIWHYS

Q: Which results are given for `COc1cc(N)c(Cl)cc1C(=O)NC1CCN2CCCC1C2` (centres undefined) [RENZAPRIDE]?
A: minimal effective dose [1]: 0.25 mg/kg; EC50 [2]: 98 nM; Ki [3]: 5.6 nM

Q: Which minimal effective dose [1] does the source give for `COc1cc(N)c(Cl)cc1C(=O)N[C@@H]1CCN(CCCOc2ccc(F)cc2)C[C@@H]1OC` [CISAPRIDE] here?
A: Its minimal effective dose is 5 mg/kg.

Q: For `COc1cc(N)c(Cl)cc1C(=O)N[C@@H]1C2CC3CN(C2)CC31` (some centres undefined), which minimal effective dose [1] is on record?
A: Its minimal effective dose is 0.01 mg/kg.

Q: And the EC50 [2]?
A: The EC50 was 51.3 nM.

Q: And the Ki [3]?
A: Its Ki is 1.2 nM.

Q: Which MED [1] does the source give for `COc1cc(N)c(Cl)cc1C(=O)NC1C2CC3CC1CN(C3)C2` (stereo in doubt) here?
A: Its MED is 0.03 mg/kg.

Q: What about the EC50 [2] of the same compound?
A: The EC50 was 262 nM.

Q: What about the Ki [3] of the same compound?
A: The Ki was 9 nM.

Q: For `COc1cc(N)c(Cl)cc1C(=O)N[C@H]1C2CC3CN(C2)CC31` (some centres undefined), which minimal effective dose [1] is on record?
A: The minimal effective dose was 0.01 mg/kg.

Q: And the EC50 [2]?
A: Its EC50 is 3870 nM.

Q: What about the Ki [3] of the same compound?
A: Its Ki is 3.9 nM.

Q: Which results are given for `COc1cc(N)c(Cl)cc1C(=O)N[C@@H]1CN2CCC1CC2`?
A: minimal effective dose [1]: 0.3 mg/kg; EC50 [2]: 203 nM; Ki [3]: 0.23 nM

Q: Which MED [1] does the source give for `COc1cc(N)c(Cl)cc1C(=O)NC1C2CC3CC1CN(C3)C2` (stereo in doubt; 1A) here?
A: The MED was 10 mg/kg.

Q: What about the EC50 [2] of the same compound?
A: Its EC50 is 538 nM.

Q: And the Ki [3]?
A: The Ki was 336 nM.
